# In patent US11130756B2, “[1,2,4]Triazolo[4,3-A]pyridinyl substituted indole compounds” (BRISTOL-MYERS SQUIBB COMPANY, priority 2017, dated 2021):
# Experiments:
# Type in all cases: cell-based
# human TLR7 = target: T1, human TLR7 (Homo sapiens, UniProt Q9NYK1); experiment: TLR7 inhibition reporter assay (HEK-Blue, SEAP); conditions: HEK-Blue cells overexpressing human TLR7, gardiquimod 7.5 μM, 22 hour incubation
# T1 construct: host or cells: HEK-Blue cells
# T1 sequence (Q9NYK1 27-1049): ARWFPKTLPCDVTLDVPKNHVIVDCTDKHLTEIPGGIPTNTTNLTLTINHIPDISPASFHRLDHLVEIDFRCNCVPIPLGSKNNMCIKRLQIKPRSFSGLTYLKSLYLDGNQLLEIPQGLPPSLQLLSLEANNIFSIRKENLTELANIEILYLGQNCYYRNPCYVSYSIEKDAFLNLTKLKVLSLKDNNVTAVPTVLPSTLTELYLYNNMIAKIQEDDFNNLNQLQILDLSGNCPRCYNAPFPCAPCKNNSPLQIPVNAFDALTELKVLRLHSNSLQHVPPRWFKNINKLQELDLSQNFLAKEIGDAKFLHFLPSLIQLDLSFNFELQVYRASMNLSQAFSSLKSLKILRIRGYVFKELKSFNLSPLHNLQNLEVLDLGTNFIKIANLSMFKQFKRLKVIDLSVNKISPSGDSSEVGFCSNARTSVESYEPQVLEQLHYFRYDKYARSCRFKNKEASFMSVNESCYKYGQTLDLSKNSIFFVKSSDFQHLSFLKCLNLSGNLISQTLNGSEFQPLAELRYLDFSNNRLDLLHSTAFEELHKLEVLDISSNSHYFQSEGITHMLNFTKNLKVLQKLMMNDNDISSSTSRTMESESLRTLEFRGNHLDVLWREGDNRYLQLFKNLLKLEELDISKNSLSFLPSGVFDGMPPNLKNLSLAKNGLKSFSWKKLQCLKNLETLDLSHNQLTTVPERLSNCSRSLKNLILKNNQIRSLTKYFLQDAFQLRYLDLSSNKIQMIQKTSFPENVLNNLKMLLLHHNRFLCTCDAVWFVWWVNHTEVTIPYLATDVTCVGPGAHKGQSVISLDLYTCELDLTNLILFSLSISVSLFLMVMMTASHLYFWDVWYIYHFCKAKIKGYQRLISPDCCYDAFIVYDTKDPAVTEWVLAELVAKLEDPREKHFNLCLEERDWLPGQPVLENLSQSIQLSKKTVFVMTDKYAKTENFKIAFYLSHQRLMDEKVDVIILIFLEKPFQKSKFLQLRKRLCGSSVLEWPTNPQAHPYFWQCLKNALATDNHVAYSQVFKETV
# Method in brief: (§1)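 Human TLR7/8/9 HEK-Blue reporter lines; dose range 0.05 nM–50 μM; 30 min RT preincubation; stimulus gardiquimod 7.5 μM / R848 15.9 μM / ODN2006 5 nM respectively; 22 h, 37 °C; SEAP detected colorimetrically.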
# human TLR8 = target: T2, human TLR8 (Homo sapiens, UniProt Q9NR97); experiment: TLR8 inhibition reporter assay (HEK-Blue, SEAP); conditions: HEK-Blue cells overexpressing human TLR8, R848 15.9 μM, 22 hour incubation
# T2 construct: host or cells: HEK-Blue cells
# T2 sequence (Q9NR97 27-1041): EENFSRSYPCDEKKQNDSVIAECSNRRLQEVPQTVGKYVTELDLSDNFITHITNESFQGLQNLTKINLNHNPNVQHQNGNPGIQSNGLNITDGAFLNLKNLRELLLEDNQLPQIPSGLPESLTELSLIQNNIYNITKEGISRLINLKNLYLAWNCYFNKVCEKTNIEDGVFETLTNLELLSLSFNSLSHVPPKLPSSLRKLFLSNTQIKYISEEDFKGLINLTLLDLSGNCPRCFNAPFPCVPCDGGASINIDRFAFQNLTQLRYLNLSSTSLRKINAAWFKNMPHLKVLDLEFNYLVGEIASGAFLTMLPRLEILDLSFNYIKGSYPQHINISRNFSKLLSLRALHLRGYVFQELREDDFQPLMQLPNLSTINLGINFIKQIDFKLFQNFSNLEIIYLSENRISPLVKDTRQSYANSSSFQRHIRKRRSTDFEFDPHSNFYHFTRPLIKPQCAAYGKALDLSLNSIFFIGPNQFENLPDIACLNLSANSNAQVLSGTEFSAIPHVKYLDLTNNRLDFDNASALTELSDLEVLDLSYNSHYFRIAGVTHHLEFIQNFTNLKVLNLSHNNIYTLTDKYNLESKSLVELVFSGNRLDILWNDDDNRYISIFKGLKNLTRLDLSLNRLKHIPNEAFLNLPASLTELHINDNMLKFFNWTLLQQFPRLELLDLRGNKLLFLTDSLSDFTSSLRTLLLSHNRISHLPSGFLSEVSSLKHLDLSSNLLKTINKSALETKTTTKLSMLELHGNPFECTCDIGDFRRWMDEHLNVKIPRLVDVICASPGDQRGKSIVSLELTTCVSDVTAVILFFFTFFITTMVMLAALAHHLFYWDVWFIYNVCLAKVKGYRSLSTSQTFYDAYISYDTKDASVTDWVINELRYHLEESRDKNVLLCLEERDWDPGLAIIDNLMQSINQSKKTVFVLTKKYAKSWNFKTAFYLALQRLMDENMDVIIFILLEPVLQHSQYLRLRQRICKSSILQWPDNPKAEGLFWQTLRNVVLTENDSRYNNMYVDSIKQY
# Method in brief: as §1
# human TLR9 = target: T3, human TLR9 (Homo sapiens, UniProt Q9NR96); experiment: TLR9 inhibition reporter assay (HEK-Blue, SEAP); conditions: HEK-Blue cells overexpressing human TLR9, ODN2006 5 nM, 22 hour incubation
# T3 construct: host or cells: HEK-Blue cells
# T3 sequence (Q9NR96 26-1032): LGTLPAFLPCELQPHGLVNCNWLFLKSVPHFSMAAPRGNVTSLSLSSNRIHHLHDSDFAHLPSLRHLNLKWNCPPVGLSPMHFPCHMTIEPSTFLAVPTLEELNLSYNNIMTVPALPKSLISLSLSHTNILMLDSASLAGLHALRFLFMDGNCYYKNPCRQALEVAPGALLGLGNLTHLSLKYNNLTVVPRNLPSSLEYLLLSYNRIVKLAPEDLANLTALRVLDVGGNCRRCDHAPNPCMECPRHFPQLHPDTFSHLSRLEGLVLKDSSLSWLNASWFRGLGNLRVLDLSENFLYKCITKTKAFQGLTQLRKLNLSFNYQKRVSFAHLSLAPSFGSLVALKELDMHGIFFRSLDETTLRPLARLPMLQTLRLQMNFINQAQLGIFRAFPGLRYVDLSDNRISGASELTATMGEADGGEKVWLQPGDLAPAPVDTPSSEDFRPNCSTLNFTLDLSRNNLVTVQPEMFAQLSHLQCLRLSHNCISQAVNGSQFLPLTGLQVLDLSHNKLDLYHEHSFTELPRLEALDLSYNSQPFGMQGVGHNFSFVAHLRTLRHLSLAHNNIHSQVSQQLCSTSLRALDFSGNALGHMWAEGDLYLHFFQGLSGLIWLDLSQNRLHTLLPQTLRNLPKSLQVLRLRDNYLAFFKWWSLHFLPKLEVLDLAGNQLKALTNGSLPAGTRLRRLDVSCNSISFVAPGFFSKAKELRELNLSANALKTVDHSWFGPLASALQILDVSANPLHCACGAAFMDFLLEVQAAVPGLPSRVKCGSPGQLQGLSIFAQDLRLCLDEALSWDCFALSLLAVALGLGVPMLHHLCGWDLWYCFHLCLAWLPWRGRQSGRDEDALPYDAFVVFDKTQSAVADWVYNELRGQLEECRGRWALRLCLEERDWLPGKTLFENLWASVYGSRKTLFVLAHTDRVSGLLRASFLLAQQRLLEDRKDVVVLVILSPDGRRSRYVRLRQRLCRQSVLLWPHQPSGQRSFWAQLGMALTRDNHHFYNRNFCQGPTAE
# Method in brief: as §1
IC50 (human TLR7),IC50 (human TLR8),IC50 (human TLR9),SMILES
5 nM,13 nM,1300 nM,"Cc1c(-c2[nH]c3ccc(C4CCN(CCN5CCCC5=O)CC4)cc3c2C(C)C)cn2cnnc2c1C [Example 57, 1-(2-(4-(2-(7,8-dimethyl-[1,2,4]triazolo[4,3-a]pyridin-6-yl)-3-isopropyl-1H-indol-5-yl)piperidin-1-yl)ethyl) pyrrolidin-2-one]"
11.8 nM,11.7 nM,7870 nM,"Cc1cc(-c2[nH]c3ccc(C4CCN(C5COC5)CC4)cc3c2C(C)C)cn2c(C)nnc12 [Example 72, 6-(3-isopropyl-5-(1-(oxetan-3-yl)piperidin-4-yl)-1H-indol-2-yl)-3,8-dimethyl-[1,2,4]triazolo[4,3-a]pyridine]"
2.4 nM,12.8 nM,1300 nM,"Cc1c(-c2[nH]c3ccc(C4CCN(C5CC(C)OC(C)C5)CC4)cc3c2C(C)C)cn2cnnc2c1C (stereo not drawn) [Example 87, 6-(5-(1-(2,6-dimethyltetrahydro-2H-pyran-4-yl)piperidin-4-yl)-3-isopropyl-1H-indol-2-yl)-7,8-dimethyl-[1,2,4]triazolo[4,3-a]pyridine]"
106 nM,13.1 nM,16100 nM,"Cc1cc(-c2[nH]c3ccc(C4CCN(C5COC5)CC4)cc3c2C(C)C)c(C)n2cnnc12 [Example 76, 6-(3-isopropyl-5-(1-(oxetan-3-yl)piperidin-4-yl)-1H-indol-2-yl)-5,8-dimethyl-[1,2,4]triazolo[4,3-a]pyridine]"
31 nM,11.5 nM,746 nM,"Cc1cc(-c2[nH]c3ccc(C4CCNCC4)cc3c2C(C)C)c(C)n2cnnc12 [Example 9, 6-(3-isopropyl-5-(piperidin-4-yl)-1H-indol-2-yl)-5,8-dimethyl-[1,2,4] triazolo[4,3-a]pyridine]"
0.7 nM,1.1 nM,4330 nM,"Cc1cc(-c2[nH]c3ccc(C4CCN(CC5(C)COC5)CC4)cc3c2C(C)C)cn2cnnc12 [Example 29, 6-(3-isopropyl-5-(1-((3-methyloxetan-3-yl)methyl)piperidin-4-yl)-1H-indol-2-yl)-8-methyl-[1,2,4]triazolo[4,3-a]pyridine]"
1.2 nM,4.5 nM,919 nM,"Cc1cc(-c2[nH]c3ccc(C4CCN(CCCC(F)(F)F)CC4)cc3c2C(C)C)cn2cnnc12 [Example 36, 6-(3-isopropyl-5-(1-(4,4,4-trifluorobutyl)piperidin-4-yl)-1H-indol-2-yl)-8-methyl-[1,2,4]triazolo[4,3-a]pyridine]"
1.6 nM,4 nM,2800 nM,"Cc1c(-c2[nH]c3ccc(C4CCN(C5CCOC5)CC4)cc3c2C(C)C)cn2cnnc2c1C (stereo not drawn) [Example 93, 6-(3-isopropyl-5-(1-(tetrahydrofuran-3-yl)piperidin-4-yl)-1H-indol-2-yl)-7,8-dimethyl-[1,2,4]triazolo[4,3-a)pyridine]"
1.2 nM,26.8 nM,6200 nM,"COc1cc(-c2[nH]c3ccc(C4CCN(C5COC5)CC4)cc3c2C(C)C)cn2cnnc12 [Example 86, 6-(3-isopropyl-5-(1-(oxetan-3-yl)piperidin-4-yl)-1H-indol-2-yl)-8-methoxy-[1,2,4]triazolo[4,3-a]pyridine]"
15 nM,245 nM,1100 nM,"CNC(=O)CN1CCC(c2ccc3[nH]c(-c4cn5cnnc5cc4C)c(C(C)C)c3c2)CC1 [Example 15, 2-(4-(3-isopropyl-2-(7-methyl-[1,2,4]triazolo[4,3-a]pyridin-6-yl)-1H-indol-5-yl)piperidin-1-yl)-N-methylacetamide]"
0.7 nM,20.5 nM,2080 nM,"COc1cc(-c2[nH]c3ccc(C4CCN(C5CCC(F)(F)CC5)CC4)cc3c2C(C)C)cn2cnnc12 [Example 95, 6-(5-(1-(4,4-difluorocyclohexyl)piperidin-4-yl)-3-isopropyl-1H-indol-2-yl)-8-methoxy-[1,2,4] triazolo[4,3-a]pyridine]"
2.4 nM,59.6 nM,4830 nM,"Cc1c(-c2[nH]c3ccc(C4CC(C)N(CC5(C)COC5)C(C)C4)cc3c2C(C)C)cn2cnnc2c1C (single isomer, unassigned) [Example 113, 6-(5-(2,6-dimethyl-1-((3-methyloxetan-3-yl)methyl)piperidin-4-yl)-3-isopropyl-1H-indol-2-yl)-7,8-dimethyl-[1,2,4]triazolo[4,3-a]pyridine]"

SMILES,IC50 (human TLR7),IC50 (human TLR8),IC50 (human TLR9)
"Cc1c(-c2[nH]c3ccc(C4C[C@H]5CC[C@@H](C4)N5)cc3c2C(C)C)cn2cnnc2c1C (single isomer, unassigned) [Example 116, 6-(5-(8-azabicyclo[3.2.1]octan-3-yl)-3-isopropyl-1H-indol-2-yl)-7,8-dimethyl-[1,2,4]triazolo[4,3-a]pyridine]",9.9 nM,102 nM,1110 nM
"Cc1c(-c2[nH]c3ccc(C4C[C@H]5CC[C@@H](C4)N5C4COC4)cc3c2C(C)C)cn2cnnc2c1C (single isomer, unassigned) [Example 122]",2.3 nM,98.9 nM,5940 nM
